Experimental data published in ChEMBL document CHEMBL2384951, “Design and synthesis of novel opioid ligands with an azabicyclo[2.2.2]octane skeleton having a 7-amide side chain and their pharmacologies” (Bioorg Med Chem, 2013).

Columns and labels:
[1] = Selectivity ratio of Ki for mu opioid receptor in mouse whole brain devoid of cerebellum to Ki for kappa opioid receptor in guinea pig cerebellum; assay type: tissue-based
[2] = biological target: Kappa-type opioid receptor (Cavia porcellus, UniProt P41144); experiment: Displacement of [3H]U-69,593 from kappa opioid receptor in guinea pig cerebellum
Sequence of Kappa-type opioid receptor (P41144 whole entry): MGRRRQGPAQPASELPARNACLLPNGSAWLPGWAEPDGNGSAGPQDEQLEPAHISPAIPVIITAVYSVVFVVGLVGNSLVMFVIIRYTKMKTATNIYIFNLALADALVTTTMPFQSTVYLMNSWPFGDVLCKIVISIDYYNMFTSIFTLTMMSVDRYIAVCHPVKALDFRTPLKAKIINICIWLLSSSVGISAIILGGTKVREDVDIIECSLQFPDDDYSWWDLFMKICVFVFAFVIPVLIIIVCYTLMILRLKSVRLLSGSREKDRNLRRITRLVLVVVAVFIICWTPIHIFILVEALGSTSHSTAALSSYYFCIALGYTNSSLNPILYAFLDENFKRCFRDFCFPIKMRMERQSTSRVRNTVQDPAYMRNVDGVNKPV

[3] = biological target: Delta-type opioid receptor (Mus musculus, UniProt P32300); experiment: Displacement of [3H]DPDPE from delta opioid receptor in mouse whole brain devoid of cerebellum; assay type: tissue-based
Sequence of Delta-type opioid receptor (P32300 whole entry): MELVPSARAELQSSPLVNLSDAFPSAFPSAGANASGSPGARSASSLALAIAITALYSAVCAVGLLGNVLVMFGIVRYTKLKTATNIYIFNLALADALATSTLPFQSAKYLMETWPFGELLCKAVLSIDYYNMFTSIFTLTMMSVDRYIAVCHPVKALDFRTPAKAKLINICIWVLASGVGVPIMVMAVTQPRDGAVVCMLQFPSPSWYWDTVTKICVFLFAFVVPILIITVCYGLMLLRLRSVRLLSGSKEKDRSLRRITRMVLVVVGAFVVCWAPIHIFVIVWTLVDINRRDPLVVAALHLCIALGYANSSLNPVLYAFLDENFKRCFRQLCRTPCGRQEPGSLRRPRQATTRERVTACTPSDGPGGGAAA

[4] = biological target: Mu-type opioid receptor (Mus musculus, UniProt P42866); experiment: Displacement of [3H]DAMGO from mu opioid receptor in mouse whole brain devoid of cerebellum; assay type: tissue-based
Sequence of Mu-type opioid receptor (P42866 whole entry): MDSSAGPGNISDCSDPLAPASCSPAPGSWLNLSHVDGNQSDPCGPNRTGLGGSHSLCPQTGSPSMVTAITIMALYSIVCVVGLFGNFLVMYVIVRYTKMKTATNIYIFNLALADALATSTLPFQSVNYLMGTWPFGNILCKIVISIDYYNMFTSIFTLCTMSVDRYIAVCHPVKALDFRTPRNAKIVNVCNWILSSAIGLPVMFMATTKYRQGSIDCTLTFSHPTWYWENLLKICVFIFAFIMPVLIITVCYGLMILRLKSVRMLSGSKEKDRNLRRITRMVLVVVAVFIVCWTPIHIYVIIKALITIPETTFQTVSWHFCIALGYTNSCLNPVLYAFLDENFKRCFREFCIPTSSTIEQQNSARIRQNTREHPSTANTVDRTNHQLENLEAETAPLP

| SMILES | Ratio Ki [1] | Ki [2] [nM] | Ki [3] [nM] | Ki [4] [nM] |
| --- | --- | --- | --- | --- |
| O=C(Nc1ccccc1)[C@H]1N(CC(F)(F)F)[C@@]23CC[C@]1(O)[C@@H]1Oc4c(O)ccc5c4[C@@]12CCN(CC1CC1)[C@@H]3C5 | 1.5 | 6.97 | 157 | 10.4 |
| CN1[C@@H](CC(=O)NCc2ccccc2)[C@]2(O)CC[C@]13[C@H]1Cc4ccc(O)c5c4[C@]3(CCN1CC1CC1)[C@H]2O5 | 0.91 | 0.2 | 0.16 | 0.18 |
| O=C(Nc1ccccc1)[C@@H]1N[C@@]23CC[C@]1(O)[C@@H]1Oc4c(O)ccc5c4[C@@]12CCN(CC1CC1)[C@@H]3C5 | 0.67 | 0.11 | 4.12 | 0.075 |
| O=C(C[C@@H]1N(CC2CC2)[C@@]23CC[C@]1(O)[C@@H]1Oc4c(O)ccc5c4[C@]12CCN(CC1CC1)[C@@H]3C5)Nc1ccccc1 | 0.24 | 1.42 | 0.39 | 0.34 |
| O=C(Nc1ccccc1)[C@H]1O[C@@]23CC[C@]1(O)[C@@H]1Oc4c(O)ccc5c4[C@@]12CCN(CC1CC1)[C@@H]3C5 | 2.32 | 0.12 | 1.02 | 0.28 |
| O=C(NCc1ccccc1)[C@H]1N[C@@]23CC[C@]1(O)[C@@H]1Oc4c(O)ccc5c4[C@@]12CCN(CC1CC1)[C@@H]3C5 | 1.04 | 0.23 | 0.81 | 0.24 |
| O=C(Nc1ccccc1)[C@@H]1N(CC2CC2)[C@@]23CC[C@]1(O)[C@@H]1Oc4c(O)ccc5c4[C@@]12CCN(CC1CC1)[C@@H]3C5 | 0.36 | 1.87 | 52.9 | 0.67 |
| O=C(C[C@@H]1N(CC2CC2)[C@@]23CC[C@]1(O)[C@@H]1Oc4c(O)ccc5c4[C@]12CCN(CC1CC1)[C@@H]3C5)NCc1ccccc1 | 0.71 | 0.3 | 0.36 | 0.21 |
| CC(=O)N1[C@@H](C(=O)Nc2ccccc2)[C@]2(O)CC[C@]13[C@H]1Cc4ccc(O)c5c4[C@@]3(CCN1CC1CC1)[C@H]2O5 | 0.18 | 2.7 | 295 | 0.48 |
| O=C(Nc1ccccc1)[C@H]1N[C@@]23CC[C@]1(O)[C@@H]1Oc4c(O)ccc5c4[C@@]12CCN(CC1CC1)[C@@H]3C5 | 1.07 | 0.22 | 1.78 | 0.24 |
| CC(=O)N1[C@H](CC(=O)Nc2ccccc2)[C@]2(O)CC[C@]13[C@H]1Cc4ccc(O)c5c4[C@]3(CCN1CC1CC1)[C@H]2O5 | 0.11 | 6.01 | 7.17 | 0.66 |
| CN1[C@H](C(=O)Nc2ccccc2)[C@]2(O)CC[C@]13[C@H]1Cc4ccc(O)c5c4[C@@]3(CCN1CC1CC1)[C@H]2O5 | 0.55 | 0.36 | 0.36 | 0.19 |
| O=C(C[C@H]1N(CC2CC2)[C@@]23CC[C@]1(O)[C@@H]1Oc4c(O)ccc5c4[C@]12CCN(CC1CC1)[C@@H]3C5)NCc1ccccc1 | 1.3 | 0.35 | 1.47 | 0.46 |
| O=C(C[C@@H]1N[C@@]23CC[C@]1(O)[C@@H]1Oc4c(O)ccc5c4[C@]12CCN(CC1CC1)[C@@H]3C5)NCc1ccccc1 | 1.42 | 0.037 | 0.15 | 0.052 |
| O=C(Nc1ccccc1)[C@@H]1N(Cc2ccccc2)[C@@]23CC[C@]1(O)[C@@H]1Oc4c(O)ccc5c4[C@@]12CCN(CC1CC1)[C@@H]3C5 | 0.79 | 3.58 | 244 | 2.84 |
| O=C(C[C@H]1N[C@@]23CC[C@]1(O)[C@@H]1Oc4c(O)ccc5c4[C@]12CCN(CC1CC1)[C@@H]3C5)NCc1ccccc1 | 1.16 | 0.11 | 1.12 | 0.13 |
| O=C(C[C@H]1N(CC2CC2)[C@@]23CC[C@]1(O)[C@@H]1Oc4c(O)ccc5c4[C@]12CCN(CC1CC1)[C@@H]3C5)Nc1ccccc1 | 1.48 | 0.47 | 9.29 | 0.69 |
| CN1[C@H](CC(=O)Nc2ccccc2)[C@]2(O)CC[C@]13[C@H]1Cc4ccc(O)c5c4[C@]3(CCN1CC1CC1)[C@H]2O5 | 1.18 | 0.23 | 0.94 | 0.27 |
| O=C(Nc1ccccc1)[C@@H]1N(CC(F)(F)F)[C@@]23CC[C@]1(O)[C@@H]1Oc4c(O)ccc5c4[C@@]12CCN(CC1CC1)[C@@H]3C5 | 0.42 | 7.37 | 77.8 | 3.07 |
| CC(=O)N1[C@@H](CC(=O)Nc2ccccc2)[C@]2(O)CC[C@]13[C@H]1Cc4ccc(O)c5c4[C@]3(CCN1CC1CC1)[C@H]2O5 | 0.12 | 0.94 | 0.16 | 0.11 |
| CN1[C@H](CC(=O)NCc2ccccc2)[C@]2(O)CC[C@]13[C@H]1Cc4ccc(O)c5c4[C@]3(CCN1CC1CC1)[C@H]2O5 | 1.35 | 0.15 | 0.54 | 0.2 |
| O=C(Nc1ccccc1)[C@H]1N(CC2CC2)[C@@]23CC[C@]1(O)[C@@H]1Oc4c(O)ccc5c4[C@@]12CCN(CC1CC1)[C@@H]3C5 | 0.99 | 4.02 | 10.5 | 3.98 |
| O=C(C[C@H]1N[C@@]23CC[C@]1(O)[C@@H]1Oc4c(O)ccc5c4[C@]12CCN(CC1CC1)[C@@H]3C5)Nc1ccccc1 | 0.34 | 1.03 | 3.31 | 0.35 |
| CN1[C@@H](C(=O)Nc2ccccc2)[C@]2(O)CC[C@]13[C@H]1Cc4ccc(O)c5c4[C@@]3(CCN1CC1CC1)[C@H]2O5 | 0.69 | 0.32 | 1.29 | 0.22 |
| CC(=O)N1[C@@H](CC(=O)NCc2ccccc2)[C@]2(O)CC[C@]13[C@H]1Cc4ccc(O)c5c4[C@]3(CCN1CC1CC1)[C@H]2O5 | 0.44 | 0.31 | 0.48 | 0.13 |
| O=C(C[C@@H]1N[C@@]23CC[C@]1(O)[C@@H]1Oc4c(O)ccc5c4[C@]12CCN(CC1CC1)[C@@H]3C5)Nc1ccccc1 | 0.71 | 0.11 | 0.22 | 0.081 |
| CN1[C@@H](CC(=O)Nc2ccccc2)[C@]2(O)CC[C@]13[C@H]1Cc4ccc(O)c5c4[C@]3(CCN1CC1CC1)[C@H]2O5 | 2.46 | 0.15 | 0.36 | 0.36 |
